A short description of the first data set: Metabolic stability in rat liver microsomes assessed as parent compound remaining measured after 30 mins in presence of NADPH by LC-MS/MS analysis. The format is ADME, Microsome. The conditions noted are these: read-out: Stability. (In general: Liver microsomes are a subcellular fraction often used to study metabolism.)
As for `CC(C)(C)NC(c1ccccc1)C(F)(F)C(=O)c1ccc2ccccc2c1` (configuration not stated), the remaining at 0.5 h is less than 1%.
Same read-out and setting: the same measure for `O=C(c1ccc2ccccc2c1)C(F)(F)C(O)/C=C/c1ccccc1` (configuration not stated): 75.5%; for `CC(C)(C)OC(=O)NC(c1ccc(F)cc1)C(F)(F)C(=O)c1ccc(Cl)cc1` (configuration not stated): less than 1%.
With `O=C(c1ccc2ccccc2c1)C(F)(F)CO`, the remaining at 0.5 h is 41.5%.
Regarding `CCC/C=C/C(O)C(F)(F)C(=O)C12CC3CC(CC(C3)C1)C2` (configuration not stated), the remaining at 0.5 h was determined as 63%.
On the same count and under the same terms, the same measure for `C/C=C/C=C/C(NCc1ccccc1)C(F)(F)C(=O)c1ccc2ccccc2c1` (configuration not stated): 2%; for `CC(C)(C)OC(=O)NC(c1ccc(Cl)cc1)C(F)(F)C(=O)c1ccc2ccccc2c1` (configuration not stated): 7.5%; for `COc1ccc(NC(c2ccc(OC)cc2)C(F)(F)C(=O)c2ccc3ccccc3c2)cc1` (configuration not stated): 7.5%.
Same read-out and setting: the same measure for `O=C(c1ccc2ccccc2c1)C(F)(F)C(Nc1ccccc1)c1ccccc1` (configuration not stated): 1%; for `O=C(C12CC3CC(CC(C3)C1)C2)C(F)(F)C(NCc1ccccc1)c1ccccc1` (configuration not stated): less than 1%.
The same measure, in the same setting: the same measure for `COc1ccc(C(O)C(F)(F)C(=O)c2ccc3ccccc3c2)cc1` (configuration not stated): less than 1%.
Consider `CC(C)(C)OC(=O)NC(c1ccc(Cl)cc1)C(F)(F)C(=O)c1ccc2c(c1)OCO2` (configuration not stated), for which the remaining at 0.5 h came out at 83%.
On the same count and under the same terms, the same measure for `CC(C)(C)OC(=O)NC(c1ccccc1)C(F)(F)C(=O)c1ccc2ccccc2c1` (configuration not stated): 4%; for `CC(C)(C)OC(=O)NC(c1cccc(Br)c1)C(F)(F)C(=O)c1ccc(Cl)cc1` (configuration not stated): less than 1%.
Still for that read-out and setting: the same measure for `O=C(c1cccc(SCc2ccccc2)c1)C(F)(F)C(NCc1ccccc1)c1ccccc1` (configuration not stated): 12.5%; for `COc1cc2c(cc1OC)C(C(F)(F)C(=O)c1ccc(C(F)(F)F)cc1)NCC2` (configuration not stated): 7.5%; for `O=C(c1ccc(Cl)cc1)C(F)(F)C(O)c1ccccc1` (configuration not stated): 98.5%.
The same measure, in the same setting: the same measure for `CC(C)(C)OC(=O)NC(c1cccc(F)c1)C(F)(F)C(=O)c1ccc2ccccc2c1` (configuration not stated): 5%; for `O=C(c1ccc2c(c1)OCO2)C(F)(F)C(O)c1ccccc1` (configuration not stated): 53%; for `CC(=O)c1ccc(C(O)C(F)(F)C(=O)c2ccc3ccccc3c2)cc1` (configuration not stated): less than 1%.
As to `CC(C)(C)OC(=O)NC(c1ccc(F)cc1)C(F)(F)C(=O)c1ccc2ccccc2c1` (configuration not stated), the remaining at 0.5 h is less than 1%.
Consider `O=C(c1ccc2c(c1)OCO2)C(F)(F)C(O)c1ccc(Cl)cc1` (configuration not stated), for which the remaining at 0.5 h was determined as 11.5%.
The same measure, in the same setting: the same measure for `COc1ccc(C(O)C(F)(F)C(=O)C23CC4CC(CC(C4)C2)C3)cc1` (configuration not stated): 85.5%; for `CC(C)(C)OC(=O)NC(c1ccc(Cl)cc1)C(F)(F)C(=O)c1ccc(Cl)cc1` (configuration not stated): 3%.
Same read-out and setting: the same measure for `Cc1ccc(NC(c2ccc(F)cc2)C(F)(F)C(=O)c2ccc3ccccc3c2)cc1C` (configuration not stated): 2%.
Same read-out and setting: the same measure for `O=C(c1ccc(Cl)cc1)C(F)(F)C(NCc1ccccc1)c1ccccc1` (configuration not stated): 2%; for `CC(C)(C)OC(=O)NC(c1ccccc1)C(F)(F)C(=O)c1ccc2c(c1)OCO2` (configuration not stated): 2.5%; for `CC(C)(C)OC(=O)NC(c1ccccc1)C(F)(F)C(=O)c1ccc(Cl)cc1` (configuration not stated): less than 1%.
Consider `COc1ccc(C(Nc2ccc(F)cc2)C(F)(F)C(=O)c2ccc3ccccc3c2)cc1` (configuration not stated), for which the remaining at 0.5 h turned out to be 2%.
Turning to `O=C(c1ccc2ccccc2c1)C(F)(F)C(O)c1ccc(F)cc1` (configuration not stated), the remaining at 0.5 h was less than 1%.
The same measure, in the same setting: the same measure for `COc1ccc(C(NC(=O)OC(C)(C)C)C(F)(F)C(=O)c2ccc3ccccc3c2)cc1` (configuration not stated): 10%.
Same read-out and setting: the same measure for `CC(C)(C)OC(=O)NC(c1cccc(Br)c1)C(F)(F)C(=O)c1ccc2ccccc2c1` (configuration not stated): 55%; for `CC(C)(C)OC(=O)NC(c1cccc(F)c1)C(F)(F)C(=O)c1ccc(Cl)cc1` (configuration not stated): less than 1%.
The same measure, in the same setting: the same measure for `CC(=O)c1ccc(C(O)C(F)(F)C(=O)C23CC4CC(CC(C4)C2)C3)cc1` (configuration not stated): 70.5%; for `O=C(c1ccc2ccccc2c1)C(F)(F)C(O)c1cccc(F)c1` (configuration not stated): less than 1%.
For `COc1ccc(C(Nc2ccccc2)C(F)(F)C(=O)c2ccc3ccccc3c2)cc1` (configuration not stated), the remaining at 0.5 h was less than 1%.
On the same count and under the same terms, the same measure for `O=C(C12CC3CC(CC(C3)C1)C2)C(F)(F)C(O)c1ccc(Cl)cc1` (configuration not stated): less than 1%; for `CC(C)(C)OC(=O)NC(c1ccc(C(F)(F)F)cc1)C(F)(F)C(=O)c1ccc2ccccc2c1` (configuration not stated): 27%; for `O=C(c1ccc2ccccc2c1)C(F)(F)C(NCc1ccccc1)c1ccccc1` (configuration not stated): 3.5%.

A further data set is described as follows: Stability in rat serum assessed as parent compound remaining measured after 30 mins by LC-MS analysis. The conditions noted are these: read-out: Stability. The format is ADME, cell-free.
On to `CC(C)(C)NC(c1ccccc1)C(F)(F)C(=O)c1ccc2ccccc2c1` (configuration not stated), for which the remaining at 0.5 h was found to be 98%.
Still for that read-out and setting: the same measure for `O=C(c1ccc2ccccc2c1)C(F)(F)C(O)/C=C/c1ccccc1` (configuration not stated): 90.5%.
The same measure, in the same setting: the same measure for `CC(C)(C)OC(=O)NC(c1ccc(F)cc1)C(F)(F)C(=O)c1ccc(Cl)cc1` (configuration not stated): 80.5%; for `O=C(c1ccc2ccccc2c1)C(F)(F)CO`: 100%; for `CCC/C=C/C(O)C(F)(F)C(=O)C12CC3CC(CC(C3)C1)C2` (configuration not stated): less than 1%.
Same read-out and setting: the same measure for `C/C=C/C=C/C(NCc1ccccc1)C(F)(F)C(=O)c1ccc2ccccc2c1` (configuration not stated): 100%.
`CC(C)(C)OC(=O)NC(c1ccc(Cl)cc1)C(F)(F)C(=O)c1ccc2ccccc2c1` (configuration not stated): the remaining at 0.5 h was less than 1%.
In the case of `COc1ccc(NC(c2ccc(OC)cc2)C(F)(F)C(=O)c2ccc3ccccc3c2)cc1` (configuration not stated), the remaining at 0.5 h was 100%.
Still for that read-out and setting: the same measure for `O=C(c1ccc2ccccc2c1)C(F)(F)C(Nc1ccccc1)c1ccccc1` (configuration not stated): 85%; for `O=C(C12CC3CC(CC(C3)C1)C2)C(F)(F)C(NCc1ccccc1)c1ccccc1` (configuration not stated): 100%.
The same measure, in the same setting: the same measure for `COc1ccc(C(O)C(F)(F)C(=O)c2ccc3ccccc3c2)cc1` (configuration not stated): 88.5%; for `CC(C)(C)OC(=O)NC(c1ccc(Cl)cc1)C(F)(F)C(=O)c1ccc2c(c1)OCO2` (configuration not stated): 89%; for `CC(C)(C)OC(=O)NC(c1ccccc1)C(F)(F)C(=O)c1ccc2ccccc2c1` (configuration not stated): 71.5%.
Same read-out and setting: the same measure for `CC(C)(C)OC(=O)NC(c1cccc(Br)c1)C(F)(F)C(=O)c1ccc(Cl)cc1` (configuration not stated): 100%; for `O=C(c1cccc(SCc2ccccc2)c1)C(F)(F)C(NCc1ccccc1)c1ccccc1` (configuration not stated): 97%; for `COc1cc2c(cc1OC)C(C(F)(F)C(=O)c1ccc(C(F)(F)F)cc1)NCC2` (configuration not stated): 97.5%.
Consider `O=C(c1ccc(Cl)cc1)C(F)(F)C(O)c1ccccc1` (configuration not stated), for which the remaining at 0.5 h was 97%.
With `CC(C)(C)OC(=O)NC(c1cccc(F)c1)C(F)(F)C(=O)c1ccc2ccccc2c1` (configuration not stated), the remaining at 0.5 h was determined as 98%.
For `O=C(c1ccc2c(c1)OCO2)C(F)(F)C(O)c1ccccc1` (configuration not stated), the remaining at 0.5 h was 83.5%.
Still for that read-out and setting: the same measure for `CC(=O)c1ccc(C(O)C(F)(F)C(=O)c2ccc3ccccc3c2)cc1` (configuration not stated): 86.5%.
On the same count and under the same terms, the same measure for `CC(C)(C)OC(=O)NC(c1ccc(F)cc1)C(F)(F)C(=O)c1ccc2ccccc2c1` (configuration not stated): 100%.
As to `O=C(c1ccc2c(c1)OCO2)C(F)(F)C(O)c1ccc(Cl)cc1` (configuration not stated), the remaining at 0.5 h is 85%.
Still for that read-out and setting: the same measure for `COc1ccc(C(O)C(F)(F)C(=O)C23CC4CC(CC(C4)C2)C3)cc1` (configuration not stated): 66.5%; for `CC(C)(C)OC(=O)NC(c1ccc(Cl)cc1)C(F)(F)C(=O)c1ccc(Cl)cc1` (configuration not stated): 83%; for `Cc1ccc(NC(c2ccc(F)cc2)C(F)(F)C(=O)c2ccc3ccccc3c2)cc1C` (configuration not stated): 74%.
The same measure, in the same setting: the same measure for `O=C(c1ccc(Cl)cc1)C(F)(F)C(NCc1ccccc1)c1ccccc1` (configuration not stated): 87%.
The same measure, in the same setting: the same measure for `CC(C)(C)OC(=O)NC(c1ccccc1)C(F)(F)C(=O)c1ccc2c(c1)OCO2` (configuration not stated): 100%; for `CC(C)(C)OC(=O)NC(c1ccccc1)C(F)(F)C(=O)c1ccc(Cl)cc1` (configuration not stated): 99%; for `COc1ccc(C(Nc2ccc(F)cc2)C(F)(F)C(=O)c2ccc3ccccc3c2)cc1` (configuration not stated): 76%.
On to `O=C(c1ccc2ccccc2c1)C(F)(F)C(O)c1ccc(F)cc1` (configuration not stated), for which the remaining at 0.5 h was found to be 96.5%.
The same measure, in the same setting: the same measure for `COc1ccc(C(NC(=O)OC(C)(C)C)C(F)(F)C(=O)c2ccc3ccccc3c2)cc1` (configuration not stated): 61%.
For the molecule `CC(C)(C)OC(=O)NC(c1cccc(Br)c1)C(F)(F)C(=O)c1ccc2ccccc2c1` (configuration not stated), the remaining at 0.5 h stood at 35.5%.
Still for that read-out and setting: the same measure for `CC(=O)c1ccc(C(O)C(F)(F)C(=O)C23CC4CC(CC(C4)C2)C3)cc1` (configuration not stated): 73%; for `O=C(c1ccc2ccccc2c1)C(F)(F)C(O)c1cccc(F)c1` (configuration not stated): 82%; for `COc1ccc(C(Nc2ccccc2)C(F)(F)C(=O)c2ccc3ccccc3c2)cc1` (configuration not stated): 100%.
Same read-out and setting: the same measure for `O=C(C12CC3CC(CC(C3)C1)C2)C(F)(F)C(O)c1ccc(Cl)cc1` (configuration not stated): 48.5%.
The same measure, in the same setting: the same measure for `CC(C)(C)OC(=O)NC(c1ccc(C(F)(F)F)cc1)C(F)(F)C(=O)c1ccc2ccccc2c1` (configuration not stated): 48.5%; for `O=C(c1ccc2ccccc2c1)C(F)(F)C(NCc1ccccc1)c1ccccc1` (configuration not stated): 85%.

These data come from ChEMBL document CHEMBL6074638, “Stability studies of β-Amino- and β-Hydroxy difluoromethyl ketones in rat serum and rat liver microsomes” (Bioorg Med Chem Lett, 2024).
